For orientation: viability, T/C means the result in the treated group divided by that in the control group, in per cent. Usually IC50 stands for the midpoint of a concentration-inhibition curve.

In this assay the test system is 953936-095-R-J2-PDC spheroids with HUVEC/MSC, viability. Kind of assay: Anticancer human tumor 953936-095-R-J2-PDC patient-derived cervical squamous cell carcinoma cell line growth inhibition [PI3K]. Conditions: for viability, T/C: stronger effect = lower value. From the text: Combinatorial screen of targeted agents with the PI3K inhibitors inavolisib, alpelisib, duvelisib, and copanlisib in multi-cell type tumor spheroids
A high-throughput screen of multi-cell type tumor spheroids was designed to identify active combinations of targeted small molecules and PI3K pathway inhibitors. Complex spheroids include a stromal component modeled by human endothelial cells (HUVEC) and fibroblasts modeled by human mesenchymal stem cells (MSCs). The concentration ranges selected for each drug and investigational agent were based upon clinically achievable concentrations if the clinical Cmax of the agent was known.
Compounds. The drugs and investigational agents: inavolisib (NSC800729), alpelisib (NSC765974), duvelisib (NSC772469), copanlisib (NSC816437), ipatasertib (NSC767898), afuresertib (NSC778305), talazoparib (NSC767125), sapanisertib (NSC764658), selumetinib (NSC741078), tovorafenib (DAY101, NSC766906), vemurafenib (NSC761431), ravoxertinib (NSC781343), sotorasib (NSC818433), MRTX1133 (NSC 836407), abemaciclib (NSC 768073), palbociclib (NSC758247), venetoclax (NSC 766270), SY5609 (NSC837396), enzalutamide (NSC755605), and darolutamide (NSC825331), were obtained from the National Cancer Institute (NCI) Developmental Therapeutics Program Chemical Repository. The FDA-approved anticancer drug set is available from the NCI Developmental Therapeutics Program. […] The stock solutions were prepared in dimethyl sulfoxide (DMSO, Sigma-Aldrich, St. Louis, MO, cat. D2650) at 800-fold the tested concentration and stored at -70 degrees C prior to their use. All drugs and investigational agents were tested over a range starting from a high concentration at or near the clinical Cmax and decreasing in half-log increments. If the clinical Cmax for an agent had not been determined, the highest concentration tested was 10 microM.
Cell Culture. All cells were maintained in an incubator at 37 degrees C and 5% CO2 with 95% humidity. The PDC lines were cultured according to standard operating procedures established by the NCI PDMR (https://pdmr.cancer.gov/sops/default.htm). All PDCs were thawed and cultured in Matrigel-coated flasks prepared with a working solution of 1X Ham's F-12 nutrient mix, without supplementation (Invitrogen, Waltham, MA, cat. 11765054), 100 U/mL penicillin-streptomycin (Invitrogen, cat. 15140122), and 2.5% Matrigel (Corning Inc., Corning, NY, cat. 354248) for the first three passages. The 354836-022-R-J1-PDC, 475296-252-R-J1-PDC, and 997726-040-R-J2-PDC lines were cultured in 6A media, which includes advanced DMEM/F-12 (Thermo Fisher Scientific, cat. 12634028), 10 mM HEPES (Thermo Fisher Scientific, cat. 15630080), 1X GlutaMAX supplement (Thermo Fisher Scientific, cat. 35050061), 0.1 mg/mL primocin (InvivoGen, San Diego, CA, cat. ant-pm-2), 10% defined fetal bovine serum, heat inactivated (HyClone Laboratories Inc., Logan, UT, cat. SH30070.03HI), 50% L-WRN conditioned media (ATCC, cat. CRL-3276), 1.25 mM N-Acetyl-L-cysteine (Sigma-Aldrich, cat. A9165), 10 mM nicotinamide (Sigma-Aldrich, cat. N0636), 1X B-27 supplement (Thermo Fisher Scientific, cat. 17504044), 1X N-2 supplement (Thermo Fisher Scientific, cat. 17502048), and 10 microM Y-27632 dihydrochloride (Tocris Bioscience, Bristol, United Kingdom, cat. 1254). The 624824-186-R-J2-PDC line was cultured in 6C/Colon 1B media, which includes all 6A media components plus 50 ng/mL human EGF recombinant protein (Thermo Fisher Scientific, cat. PHG0311). […]

Setting [1] is: compound alone, run of 06/12/2023.
Where [2] appears, read: compound alone, run of 06/13/2023.

SMILES strings stand for the structures. Several values for one entry are separate records, joined by “and”; a condition that tells them apart may be missing. Identical values can stand only once. A value given as a limit tells only on which side of the number the result lay.
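Further: spheroids exposed to compounds for seven days before read-out.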

As for `CC(=O)c1c(C)c2cnc(Nc3ccc(N4CCNCC4)cn3)nc2n(C2CCCC2)c1=O`, the viability, T/C runs as follows: (compound 0.000316 µM) 95.2% [middle of 4 runs]; (compound 0.001 µM) 96.6% [middle of 4 runs]; (compound 0.00316 µM) 103% [middle of 4 runs]; (compound 0.01 µM) 97.6% [middle of 4 runs]; (compound 0.0316 µM) 96.6% [middle of 4 runs]; (compound 0.1 µM) 95.7% [middle of 4 runs]. For the same molecule, where the note is “curve of compound”, the IC50 was > 0.1 µM.

Regarding `CC(C)NCC(C(=O)N1CCN(c2ncnc3c2C(C)CC3O)CC1)c1ccc(Cl)cc1` (stereo unspecified), the viability, T/C runs as follows: (compound 0.0316 µM) 92.7% [middle of 4 runs]; (compound 0.1 µM) 91.5% [middle of 4 runs]; (compound 0.316 µM) 80.4% [middle of 4 runs]; (compound 1 µM) 50.5% [middle of 4 runs]; (compound 3.16 µM) 24.3% [middle of 4 runs]; (compound 10 µM) 15.2% [middle of 4 runs]. For the same molecule, the IC50 (curve of compound) was 1.02 µM [middle of 4 runs].

In the case of `CC(C)n1nc(-c2ccc3oc(N)nc3c2)c2c(N)ncnc21`, the viability, T/C reads like this: (compound 0.000316 µM) 91% [middle of 4 runs]; (compound 0.001 µM) 92.7% [middle of 4 runs]; (compound 0.00316 µM) 88.9% [middle of 4 runs]; (compound 0.01 µM) 73.4% [middle of 4 runs]; (compound 0.0316 µM) 50.6% [middle of 4 runs]; (compound 0.1 µM) 17.6% [middle of 4 runs]. In addition, the IC50 (curve of compound) was 32.4 nM [middle of 4 runs].

For `CC(Nc1ccc2c(c1)OCCn1cc(N3C(=O)OCC3C(F)F)nc1-2)C(N)=O` (stereo unspecified), the viability, T/C runs as follows: (compound 0.00316 µM) 104% [middle of 8 runs]; (compound 0.01 µM) 92.8% [middle of 8 runs]; (compound 0.0316 µM) 75.9% [middle of 8 runs]; (compound 0.1 µM) 56.1% [middle of 8 runs]; (compound 0.316 µM) 36.3% [middle of 8 runs]; (compound 1 µM) 23.6% [middle of 8 runs]. In addition, the IC50 under setting [1] was 140 nM [middle of 7 runs].

On to `CC(Nc1ncnc2nc[nH]c12)c1cc2cccc(Cl)c2c(=O)n1-c1ccccc1` (stereo unspecified), for which the viability, T/C (compound 0.0316 µM) is 97.8% [middle of 8 runs]; the viability, T/C (compound 0.1 µM) was 93.8% [middle of 8 runs]; the viability, T/C (compound 0.316 µM) is 92.2% [middle of 8 runs]; the viability, T/C (compound 1 µM) is 85.9% [middle of 8 runs]; the viability, T/C (compound 3.16 µM) is 80% [middle of 8 runs]; the viability, T/C (compound 10 µM) is 65% [middle of 8 runs]. Moreover, the IC50 under setting [2] is > 10 µM.

Consider `CC1(C)CCC(CN2CCN(c3ccc(C(=O)NS(=O)(=O)c4ccc(NCC5CCOCC5)c([N+](=O)[O-])c4)c(Oc4cnc5[nH]ccc5c4)c3)CC2)=C(c2ccc(Cl)cc2)C1`, for which the viability, T/C runs as follows: (compound 0.0316 µM) 96.8% [middle of 4 runs]; (compound 0.1 µM) 95.1% [middle of 4 runs]; (compound 0.316 µM) 92.7% [middle of 4 runs]; (compound 1 µM) 102% [middle of 4 runs]; (compound 10 µM) 32.5% [middle of 4 runs]. For the same molecule, the IC50 (curve of compound) is 7.57 µM [middle of 4 runs].

In the case of `CCCS(=O)(=O)Nc1ccc(F)c(C(=O)c2c[nH]c3ncc(-c4ccc(Cl)cc4)cc23)c1F`, the viability, T/C reads like this: (compound 0.0316 µM) 94.5% [middle of 4 runs]; (compound 0.1 µM) 106% (2×) and 102% and 103%; (compound 0.316 µM) 113% [middle of 4 runs]; (compound 1 µM) 113% [middle of 4 runs]; (compound 3.16 µM) 105% [middle of 4 runs]; (compound 10 µM) 1.33% [middle of 4 runs]. For the same molecule, the IC50 (curve of compound) is 5.69 µM [middle of 4 runs].

As to `CCN1CCN(Cc2ccc(Nc3ncc(F)c(-c4cc(F)c5nc(C)n(C(C)C)c5c4)n3)nc2)CC1`, the viability, T/C (compound 0.00316 µM) is 98.4% [middle of 4 runs]; the viability, T/C (compound 0.01 µM) was 96.4% [middle of 4 runs]; the viability, T/C (compound 0.0316 µM) is 93.1% [middle of 4 runs]; the viability, T/C (compound 0.1 µM) was 100% and 101% (2×) and 89.5%; the viability, T/C (compound 0.316 µM) was 88.2% [middle of 4 runs]; the viability, T/C (compound 1 µM) was 85.2% [middle of 4 runs]. Further, under “curve of compound”, the IC50 is > 1 µM.

On to `CNC(=O)c1ccc(N2C(=S)N(c3ccc(C#N)c(C(F)(F)F)c3)C(=O)C2(C)C)cc1F`, for which the viability, T/C runs as follows: (compound 0.0316 µM) 106% (2×) and 93.7% and 103%; (compound 0.1 µM) 98% [middle of 4 runs]; (compound 0.316 µM) 93.5% [middle of 4 runs]; (compound 1 µM) 102% (2×) and 112% and 107%; (compound 10 µM) 88.5% [middle of 4 runs]. Further, the IC50 (curve of compound) is > 10 µM.

For `COc1c(OCCCN2CCOCC2)ccc2c3n(c(=NC(=O)c4cnc(N)nc4)nc12)CCN3`, the viability, T/C (compound 0.00316 µM) was 85% [middle of 8 runs]; the viability, T/C (compound 0.01 µM) was 71.1% [middle of 8 runs]; the viability, T/C (compound 0.0316 µM) was 39.5% [middle of 8 runs]; the viability, T/C (compound 0.1 µM) was 17.8% [middle of 8 runs]; the viability, T/C (compound 0.316 µM) was 5.89% [middle of 8 runs]; the viability, T/C (compound 1 µM) is 1.69% [middle of 7 runs]. For the same molecule, under setting [2], the IC50 was 22.6 nM [middle of 6 runs].

Take `C[C@@H](NC(=O)c1ncnc(N)c1Cl)c1ncc(C(=O)Nc2cc(C(F)(F)F)c(Cl)cn2)s1`: the viability, T/C is, setting by setting: (compound 0.0316 µM) 105% (2×) and 98.5% and 118%; (compound 0.1 µM) 104% (3×) and 103%; (compound 0.316 µM) 110% [middle of 4 runs]; (compound 1 µM) 115% [middle of 4 runs]; (compound 3.16 µM) 108% [middle of 4 runs]; (compound 10 µM) 102% [middle of 4 runs]. Besides, the IC50 (curve of compound) was > 10 µM.

For the molecule `Cc1nc(NC(=O)N2CCCC2C(N)=O)sc1-c1ccnc(C(C)(C)C(F)(F)F)c1` (stereo unspecified), the viability, T/C runs as follows: (compound 0.0316 µM) 90% [middle of 8 runs]; (compound 0.1 µM) 80.7% [middle of 8 runs]; (compound 0.316 µM) 64.2% [middle of 8 runs]; (compound 1 µM) 43.8% [middle of 8 runs]; (compound 3.16 µM) 28.4% [middle of 8 runs]; (compound 10 µM) 13.6% [middle of 8 runs]. Besides, the IC50 under setting [1] is 746 nM [middle of 8 runs].

As to `Cn1cnc2c(F)c(Nc3ccc(Br)cc3Cl)c(C(=O)NOCCO)cc21`, the viability, T/C reads like this: (compound 0.00949 µM) 90.5% (2×) and 83.8% and 88.8%; (compound 0.03 µM) 81.4% [middle of 4 runs]; (compound 0.0949 µM) 72.3% [middle of 4 runs]; (compound 0.3 µM) 66% [middle of 4 runs]; (compound 0.949 µM) 54.8% [middle of 4 runs]; (compound 3 µM) 37.9% [middle of 4 runs]. The IC50 (curve of compound) was 1.01 µM [middle of 4 runs].

As to `Cn1ncnc1[C@H]1c2n[nH]c(=O)c3cc(F)cc(c23)N[C@@H]1c1ccc(F)cc1`, the viability, T/C (compound 0.000316 µM) was 97.2% [middle of 4 runs]; the viability, T/C (compound 0.001 µM) is 101% [middle of 4 runs]; the viability, T/C (compound 0.00316 µM) was 103% [middle of 4 runs]; the viability, T/C (compound 0.01 µM) was 115% and 101% (2×) and 97.3%; the viability, T/C (compound 0.0316 µM) was 101% (2×) and 96.9% and 92.6%; the viability, T/C (compound 0.1 µM) was 94.8% [middle of 4 runs]. Also, the IC50 (curve of compound) is > 0.1 µM.
